Tests used:
[1] = solid-state form interconversion (variable temperature X-ray, drying); assay type: physicochemical; conditions: ambient conditions or drying
Text: FIG. 5 is an overlay of variable temperature X-ray powder diffraction patterns showing the appearance of the non-isolatable anhydrous Form C of the 2:1 compound I:biphthalate salt.
FIG. 6 is an overlay of X-ray powder diffraction patterns comparing Form B, the dihydrate 2:1 compound I:biphthalate salt, with Form D, the tetrahydrate 2:1 compound I:biphthalate salt. When the wet cake of the 2:1 compound I:biphthalate salt, was air dried at room temperature, Form D was obtained at both T=5 days and T=8-days. The various methods of drying possible, in addition to the size of the sample to be dried, can vary the time needed for drying. The dryness was determined by a stable TG curve showing about a 6% weight loss. Here, the method was to dry in open air, and at both time points (T=5 and T=8 days), the weight loss by TGA was equal to about 6%.
In another embodiment of the invention, anhydrous 2:1 compound I:biphthalate material was non-isolatable at ambient condition, but the hygroscopicity study indicated the presence of one or more hydrated states from 15% to 95% RH. The weight percent of water was 3.4% at 15% RH with a gradual increase to 6.1% at 95%. […] Form D is suspected to be a tetrahydrate biphthalate salt based on its TG data in addition to the hygroscopicity data of Form B. Upon further drying (15 days), the TG and XRD data conform to that of Form B, the dihydrate 2:1 compound I:biphthalate salt.

[2] = hygroscopicity by symmetric vapor sorption analyzer; assay type: physicochemical; conditions: 25° C.
Experimental: A large quantity of Form A (wet cake of N-(3H-imidazo[4,5-B]pyridin-2-ylmethyl)-2-fluoro-4-methyl-3-oxo-4-aza-5-alpha-androst-1-en-17-beta-carboxamide) was generated by dissolving the crystalline free base (Form E) in pH 3—potassium biphthalate and sulfuric acid mixture—for 10 days at RT. The slurry was filtered and washed with copious amount of D.I. water to wash off residual ions. The wet cake (Form A) was analyzed by x-ray and was then vacuum dried at 37° C. for 3 days. Upon drying, a change in x-ray pattern was observed. The dry cake (Form B) was then analyzed by differential scanning calorimetry (DSC) and thermogravimetry (TG). The TG analysis was performed under a nitrogen flow at a heating rate of 10° C./min, and the DSC was performed under nitrogen flow at a heating rate of 10° C./min in a covered pan. The hygroscopicity of Form B was determined using a symmetric vapor sorption analyzer. The experiment includes an initial drying step at 60° C., followed by measurements of water sorption at 25° C. for percent RH values from 5% to 95% in 10% intervals. The data are reported as percent weight gain as a function of percent RH. Form B was also analyzed for weight percent by liquid chromatography (LCWP) by high performance liquid chromatography (HPLC).

Row | SMILES | solid-state form stability / conversion [1] | weight percent of water ([2]; at 15% RH) | weight percent of water ([2]; at 95% RH)
1 | CN1C(=O)C(F)=C[C@]2(C)C3CC[C@]4(C)[C@@H](C(=O)NCc5nc6cccnc6[nH]5)CC[C@H]4C3CC[C@@H]12 (some centres unmarked) [Form D] | converts to Form B upon further drying | – | –
2 | CN1C(=O)C(F)=C[C@]2(C)C3CC[C@]4(C)[C@@H](C(=O)NCc5nc6cccnc6[nH]5)CC[C@H]4C3CC[C@@H]12 (some centres unmarked) [Form C] | readily hydrates to Form B in ambient conditions | – | –
3 | CN1C(=O)C(F)=C[C@]2(C)C3CC[C@]4(C)[C@@H](C(=O)NCc5nc6cccnc6[nH]5)CC[C@H]4C3CC[C@@H]12 (some centres unmarked) [Form B] | the most stable form | 3.4% | 6.1%
